Measurements: patent US10537611B2, “Methods of treating lung cancer” (Five Prime Therapeutics, Inc., priority 2011, dated 2020)

How the values were obtained:
DMS53 cells = assay: CellTiter-Glo cell number, DMS53; type: cell-based, human; details: 15 μg/ml, 4 days, 10%, 1% or 0.1% FBS
Source text: (§1) A panel of lung cancer cell lines displaying potential amplification of the FGFR1 gene was identified using CONAN (http://www.sanger.ac.uk/cgi-bin/genetics/CGP/conan/search.cgi) and Tumorscape (http://www.broadinstitute.org/tumorscape/pages/portalHomejsf). CONAN and Tumorscape represent public data mining tools to extract gene copy number information for predefined or user defined loci across the SNP6.0 dataset of cancer. Lung cancer cell lines DMS53, DMS114, NCI-H1581 and NCI-H520 were identified as having potential amplification of the FGFR1 gene (>4 copies/cell) and were selected for further analysis. Human small cell lung cancer (SCLC) cell lines DMS53 and DMS114 were purchased from ATCC (Manassas, Va.; Cat. No. CRL-2062; Cat. No. CRL-2066, respectfully). The cells were cultured in Waymouth's MB 752/1 medium+10% FBS+2 mM L-glutamine at 37° C. in a humidified atmosphere with 5% CO2. […]
(§2) To determine cell number the CellTiter-Glo® Luminescent Cell Viability Assay (Promega, Madison, Wis.) was employed. CellTiter-Glo® is a homogeneous method of determining the number of viable cells in culture based on quantitation of the ATP present, an indicator of metabolically active cells. […] Luminescence was then determined on an EnVision™ Multilabel Plate Reader (PerkinElmer, Boston, Mass.) with a 0.2 second integration time. Results were expressed as relative light units (RLU)/well.

NCI-H520 cells = assay: CellTiter-Glo cell number, NCI-H520; type: cell-based, human; details: 15 μg/ml, 4 days, 10%, 1% or 0.1% FBS
Source text: as §1, §2

JIMT1 xenograft model = assay: JIMT1 xenograft tumor growth inhibition; type: in vivo, mouse; details: Breast JIMT1; IP 1 mg/kg BIW; non-amplified; P < 0.05
Description: (§3) Percentage tumor growth inhibition by FGFR1-ECD.339-Fc was determined by area-under-the-curve (AUC) analysis of xenograft growth curves treated with FGFR1-ECD.339-Fc compared to albumin control. […] The difference in FGFR1-ECD.339-Fc-mediated xenograft inhibition between FGFR1 gene amplified and non-amplified lung cancer xenograft models was statistically significant (P=0.0333).
(§4) Also shown in Table 5 are the dosing schedule for FGFR1-ECD.339-Fc in a mouse xenograft model, the percent tumor growth inhibition (TGI (%)) and the statistical significance of the tumor growth inhibition (P Value), as well as whether the FGFR1 gene is amplified in the cell line.
(§5) An exemplary xenograft experiment is as follows. For Caki-1 and MSTO-211H, five million cells were implanted subcutaneously over the right flank of SCID mice (N=10 per group). […] Representative tumor growth curves are shown for a renal cancer, Caki-1, (A), and mesothelioma, MSTO-211H, (B) xenograft cancer model. […] In the MSTO-211H mesothelioma model, FGFR1-ECD.339-Fc administration reduced tumor growth (FIG. 16b) by 64% (P<0.0001).

Y79 xenograft model = assay: Y79 xenograft tumor growth inhibition; type: in vivo, mouse; details: Retinoblastoma Y79; IP 10 mg/kg BIW; non-amplified; P ns
Description: as §3, §4, §5

[1] = system: lung cancer cell lines with FGFR1 gene amplification; assay: CellTiter-Glo cell number, FGFR1 gene amplified lung cancer cell lines (average); type: cell-based, human; details: averaged across all FBS concentrations; vs control ECD-Fc; four FGFR1 amplified lines
Description: To determine the impact of FGFR1-ECD.339-Fc on lung cancer cell lines in tissue culture, cells were plated in a Microtest™ 96-well tissue culture plate (Becton Dickenson, Franklin Lakes, N.J.) at a density of 5×10^3 cells/well in medium containing 10%, 1% or 0.1% FBS in the presence or absence of 15 μg/ml FGFR1-ECD.339-Fc (SEQ ID NO: 6) or an unrelated ECD-Fc fusion protein (as a negative control). Plates were incubated at 37° C. at 5% CO2 for 4 days and then assayed to determine the impact of FGFR1-ECD.339-Fc on cell number and proliferation.
To determine cell number the CellTiter-Glo® Luminescent Cell Viability Assay (Promega, Madison, Wis.) was employed. CellTiter-Glo® is a homogeneous method of determining the number of viable cells in culture based on quantitation of the ATP present, an indicator of metabolically active cells. In brief, CellTiter-Glo® Reagent was added to each well of the tissue culture plate at a volume equal to the volume of cell culture medium present in each well (100 μl), the contents mixed for 2 minutes on an orbital shaker to induce cell lysis and then the plate incubated for 10 minutes at room temperature. Luminescence was then determined on an EnVision™ Multilabel Plate Reader (PerkinElmer, Boston, Mass.) with a 0.2 second integration time. Results were expressed as relative light units (RLU)/well. […]

A549 xenograft model = assay: A549 xenograft tumor growth inhibition; type: in vivo, mouse; details: Lung A549; IP 10 mg/kg BIW; non-amplified; P < 0.05
Source text: The impact of FGFR1-ECD.339-Fc on tumor growth was compared between FGFR1 gene amplified and non-amplified lung cancer xenograft models. Lung cell lines without FGFR1-amplification examined in this experiment were as follows: A549, NCI-H460, NCI-H226, NCI-H2126, NCI-H441, NCI-H358, NCI-H522 and Colo699. Non-amplified cell lines were purchased from ATTC (Manassas, Va.) and cultured according to supplier instructions. Lung cancer xenograft models using non-FGFR1 gene amplified cell lines were carried out substantially as described in Example 2.
as §3

FGFR1-ECD.339-Fc: human FGFR1 extracellular domain ending at amino acid 339 fused to an Fc; SEQ ID NO: 6 (mature form), SEQ ID NO: 5 with signal peptide
cell number (CellTiter-Glo) (DMS53 cells): reduced
cell number (CellTiter-Glo) (NCI-H520 cells): reduced
TGI (%) (JIMT1 xenograft model): 28%
TGI (%) (Y79 xenograft model): 0%
average reduction in cell number (CellTiterGlo RLU) [1]: 46.25%
TGI (%) (A549 xenograft model): 38%
